# Data published in patent publication US8926603B2, “System and method for denaturing and fixing collagenous tissue” (Hansen Medical, Inc., priority 2004, dated 2015).
# Assay: denaturation accompanied by genepin treatment, study at the University of Pennsylvania (FIG. 6)
# Conditions: versus denatured collagenous tissue without genepin treatment
# Description: Referring to FIGS. 5A-C, a denatured collagenous tissue mass exposed to genepin (371) is depicted. […] The result is a partial recovery or recreation of the mechanical properties of collagenous tissue to the state that they were prior to denaturation. […] Referring to FIG. 6, this has been experimentally confirmed in a study at the University of Pennsylvania, as directed by the inventors of the subject invention.
structure (smiles),measurement,value
COC(=O)C1=CO[C@@H](O)[C@@H]2C(CO)=CC[C@H]12 [genepin],susceptibility to creep deformation of denatured collagenous tissue,less susceptible to creep deformation
